Reference: patent US20240133884A1, “COMPOSITIONS AND METHODS FOR DETECTING TRYPANOSOMA CRUZI INFECTION” (University of Georgia Research Foundation, Inc., priority 2022, published 2024)

Key:
T. cruzi (Brazil strain) = experiment: Mouse cure assays (daily oral treatment, cyclophosphamide immunosuppression, hemoculture, skeletal muscle qPCR); format: in vivo, Trypanosoma cruzi
Description: Cure assays: Male or female C57BL/6 mice were intraperitoneally infected with 10^4 trypomastigotes of the Brazil strain. Mouse infection was confirmed at 25-30 dpi by detection of CD8^+ T cells specific against the T. cruzi TSKb20 peptide in blood (Martin, et al., PLoS pathogens 2, e77 (2006)). Compounds resuspended in 1% carboxymethyl cellulose and 0.1% Tween 80, were administered daily by gavage at the specified concentrations. In order to optimally detect persistent infection, immune responses in the mice were suppressed by intraperitoneal injection of four doses of cyclophosphamide every 2-3 days (200 mg/kg/day), beginning one week after the end of therapeutic treatment. At the end of the immunosuppression regimen, peripheral blood was checked under light microscope for parasites and cultured in LDNT media (Bustamante, et al., The Journal of infectious diseases 209, 150-162 (2014)). […] In vivo killing time assays: C57BL/6 mice were infected with 2.5×10^5 Luciferase-expressing T. cruzi (Brazil strain) in the foot pads, and two days later one oral dose of AN14353 (25 mg/kg) was administered. The bioluminescent signal in the feet after i.p. injection of D-luciferin (PerkinElmer; 250 mg/kg) was measured in a Lumina II IVIS imager (PerkinElmer). Low dose short treatment: Hairless mice (SKH-1) were infected intraperitoneally with 5×10^4 Luciferase expressing T. cruzi (Colombiana strain) and orally treated from 12 to 22 dpi with 1, 2.5 or 5 mg/kg of AN16109 or AN15368. Bioluminiscence signal of the whole body was measure after D-luciferin injection in a Lumina II IVIS in vivo imager equipped with the Living Imaging 4.0 software (PerkinElmer).

[1] = system: mammalian enzymes, receptors and ion channels; experiment: Safety pharmacology: affinity for a broad array of mammalian enzymes, receptors and ion channels; format: binding
Standard Ames study = format: cell-based
cytochrome P450 enzymes = experiment: Inhibition of representative cytochrome P450 enzymes; format: in vitro ADME; conditions: 10 uM
[2] = system: T. cruzi serine carboxypeptidase (CBP); experiment: Sensitivity of serine carboxypeptidase (CBP) knockout T. cruzi amastigotes; format: cell-based, Trypanosoma cruzi
Description: The in vitro anti-T. cruzi amastiogote activity assay was performed and optimized based on the protocol described previously (Canavaci, et al., PLoS neglected tropical diseases 4, e740 (2010)). The change in tdTomato fluorescence intensity was determined as a measurement of growth over 72 hours of culture. For assaying drug effects on extracellular amastigotes, trypomastigotes were collected from infected Vero cell cultures and converted in acidic media as previously described (Tomlinson, et al., Parasitology 110 (Pt 5), 547-554 (1995)). Amastigotes (50,000/well) were incubated with 2-fold serial dilutions of compounds for 48 hours. The ATP production was used as an indication of growth in this case, and was measured by ATPlite Luminescence ATP Detection Assay System (PerkinElmer). Both fluorescence and luminescence were read using a BioTek Synergy Hybrid Multi-Mode reader equipped with the software Gene5 v 2.0 (BioTek). […]
The CBPs knockout was produced using ribonucleoprotein (RNP) complexes as previously described (Soares Medeiros, et al., mBio 8 (2017)). Briefly, Brazil tdTomato strain epimastigotes were electroporated with RNP complexes containing SaCas9 and an sgRNA targeting CBP gene TcBrA4_0048170, plus a repair template containing stop codons in all three reading frames and the M13 sequence for use as a PCR anchor. […]

[3] = High dose 7-day toxicology studies in rats; format: in vivo; conditions: for dose proportionality of exposure: high dose 7-day toxicology studies, oral; for NOAEL dose: allometric scaling from rats

Structure (SMILES)	resolution of infections in immunodeficient mice (T. cruzi (Brazil strain); IFN-gamma deficient mice, 25 mg/kg, 40 days (FIG. 1E))	resolution of established T. cruzi infections (T. cruzi (Brazil strain); wild-type mice, 25 mg/kg, 40 day treatment (FIG. 1D))	affinity for a broad array of mammalian enzymes, receptors and ion channels [1]	genotoxicity, Ames (Standard Ames study)	inhibition of representative cytochrome P450 enzymes (cytochrome P450 enzymes)	decrease of in vitro sensitivity of T. cruzi amastigotes after disruption of serine carboxypeptidases ([2]; CBP KO vs wild type (FIG. 2C))	dose proportionality of exposure [3]	cure of T. cruzi infection in mice (T. cruzi (Brazil strain); in words (FIGS. 3A-3E))	minimal efficacious dose (T. cruzi (Brazil strain); mice (FIG. 3E)) [mg/kg]	increased resistance after disruption of CBPs ([2]; intracellular amastigotes, TcCBP KO vs WT (FIG. 5E)) [×]	NOAEL dose ([3]; humans) [mg/kg]	NOAEL dose ([3]; monkeys) [mg/kg]	NOAEL ([3]; rats) [mg/kg]	drug accumulation between the first and seventh days ([3]; rats)	total plasma exposure (AUC0-24 h) ([3]; rats, 120 mg/kg/day)	effects on hematology and clinical chemistry ([3]; rats, 120 mg/kg/day or lower)	effects on hematology and clinical chemistry ([3]; rats, 150 mg/kg)
Cc1c(C(=O)N[C@H](C(=O)OCc2ccc(F)c(F)c2)C(C)C)ccc2c1B(O)OC2 [AN14353]	consistently resolve	consistently resolve established T. cruzi infections	little to no affinity	non-genotoxic	did not demonstrate significant inhibition	up to 100 fold	non-dose proportional exposure										
Cc1c(C(=O)N[C@H](C(=O)OCC2CCOCC2)C(C)C)ccc2c1B(O)OC2 [AN15368]			little to no affinity	non-genotoxic	did not demonstrate significant inhibition		good dose proportional exposure	cures T. cruzi infection in mice	2.5	1000	19.4	60.5	120	no evidence of drug accumulation	approximately 30,000 ng*hr/mL	none	modest effects
